This is an account of results in US12441730B2, “PRMT5 inhibitors” (Merck Sharp & Dohme LLC, priority 2019, dated 2025).

In assay [1] the target is T1, Full-length (FL)-PRMT5-MEP50 enzyme complex (Homo sapiens, UniProt O14744).
T1 construct: Full-length (FL)-PRMT5-MEP50 enzyme complex (recombinant proteins from baculovirus-transfected Sf21 cells: FL-PRMT5; MW=73837 kDa and FL-MEP50; MW=38614); made in house; host or cells: baculovirus-transfected Sf21 cells
The experiment in a line: PRMT5-MEP50 Enzyme Methylation Assay (Version A). Type of assay: biochemical. The method, boiled down:
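Compound was pre-incubated with enzyme for 60 min, then reacted 150 min at 37° C. at final 1.0 nM PRMT5-MEP50, 15 μM SAM and 75 nM biotinylated H4R3(Me1) peptide, in 50 mM Bicine pH 8.0 with 1% DMSO. SAMDI mass-spectrometric readout of Me1→Me2 conversion. EC50 from 4- or 7-parameter regression.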

Assay [2] deals with symmetric dimethylation of arginine (SDMA) of PRMT5 substrates in MCF-7 cells. The experiment in a line: PRMT5 Cell Target Engagement (TE) Assay. Type of assay: cell-based. As to conditions: Homo sapiens, MCF7, 72 h, 3 days treatment, SDMA high content imaging. The method, boiled down:
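MCF-7 cells treated 3 days at 37 °C with a ten-point 1:3 titration from 10000 nM. Fixed cells immunostained with anti-SDMA and Alexa488 secondary; nuclear fluorescence quantified by high-content imaging versus DMSO wells, with IC50 from a 4-parameter fit.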

Setting [3] is: second value of 7 parameter biphasic fit, read-out: Enzyme Methylation Assay Version A (EC50 2).
The mark [4] stands for this setting: single EC50 = 4 parameter single site sigmoidal fit, EC50 1 = first value of 7 parameter biphasic fit, read-out: Enzyme Methylation Assay Version A (EC50 or EC50 1).

SMILES strings stand for the structures. Read-outs that look alike come from different tables or passages of the source.

T1 sequence (O14744 whole entry): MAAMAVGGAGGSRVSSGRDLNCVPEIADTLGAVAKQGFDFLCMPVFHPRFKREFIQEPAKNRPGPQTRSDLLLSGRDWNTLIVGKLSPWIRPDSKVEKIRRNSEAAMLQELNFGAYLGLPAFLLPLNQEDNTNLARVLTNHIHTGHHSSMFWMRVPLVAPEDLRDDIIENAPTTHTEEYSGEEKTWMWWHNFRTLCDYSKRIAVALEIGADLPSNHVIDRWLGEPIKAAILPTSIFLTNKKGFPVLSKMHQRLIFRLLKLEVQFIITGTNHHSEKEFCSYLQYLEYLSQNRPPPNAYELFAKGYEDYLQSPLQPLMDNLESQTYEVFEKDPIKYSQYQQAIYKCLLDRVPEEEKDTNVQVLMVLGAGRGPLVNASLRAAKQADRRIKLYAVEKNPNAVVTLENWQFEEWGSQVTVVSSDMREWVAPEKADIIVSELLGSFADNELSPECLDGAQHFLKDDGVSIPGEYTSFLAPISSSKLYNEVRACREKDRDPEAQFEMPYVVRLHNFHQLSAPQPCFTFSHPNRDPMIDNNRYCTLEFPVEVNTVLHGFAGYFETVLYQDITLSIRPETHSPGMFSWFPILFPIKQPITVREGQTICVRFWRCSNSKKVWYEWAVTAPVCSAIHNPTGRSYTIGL
T1 sequence (Q9BQA1 whole entry partner): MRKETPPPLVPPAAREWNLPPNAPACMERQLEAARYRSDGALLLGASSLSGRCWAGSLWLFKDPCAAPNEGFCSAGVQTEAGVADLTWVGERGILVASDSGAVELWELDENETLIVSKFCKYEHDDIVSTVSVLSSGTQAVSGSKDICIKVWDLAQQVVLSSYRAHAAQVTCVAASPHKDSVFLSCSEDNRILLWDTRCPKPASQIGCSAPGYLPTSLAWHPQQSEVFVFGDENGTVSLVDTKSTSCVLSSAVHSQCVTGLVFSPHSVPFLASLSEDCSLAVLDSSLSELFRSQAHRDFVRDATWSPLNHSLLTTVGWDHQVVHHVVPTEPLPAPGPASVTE

With `O=C(c1cn2cc(C(F)F)ccc2n1)N1CC[C@]2(Cc3ccccc3CN2)[C@H](O)C1` [Example 41, (6-(difluoromethyl)imidazo[1,2-a]pyridin-2-yl)((3R,3’R)-3′-hydroxy-1,4-dihydro-2H-spiro[isoquinoline-3,4′-piperidin]-1′-yl)methanone], the values for the EC50 in assay [1] (setting [3]), in assay [1] (setting [4]) and in assay [2] were 209 nM, 0.513 nM and 2.44 nM, respectively.

With `O=C(c1cn2cc(Br)ncc2n1)N1CC[C@]2(Cc3ccccc3CN2)[C@H](O)C1` [Example 42, (6-bromoimidazo[1,2-a]pyrazin-2-yl)((3R,3’R)-3′-hydroxy-1,4-dihydro-2H-spiro[isoquinoline-3,4′-piperidin]-1′-yl)methanone], the half-maximal effective concentration (EC50) worked out at 3240 nM in assay [1] (setting [3]), 5.35 nM in assay [1] (setting [4]) and 24.9 nM in assay [2].

In the case of `COc1ccc2nc(C(=O)N3CC[C@]4(Cc5ccccc5CN4)[C@H](O)C3)cn2c1` [Example 43, ((3R,3’R)-3′-hydroxy-1,4-dihydro-2H-spiro[isoquinoline-3,4′-piperidin]-1′-yl)(6-methoxyimidazo[1,2-a]pyridin-2-yl)methanone], the concentration giving a half-maximal response (EC50) worked out at 1440 nM in assay [1] (setting [3]), 3.22 nM in assay [1] (setting [4]) and 19.1 nM in assay [2].

For `Cc1cc(Br)cn2cc(C(=O)N3CC[C@]4(Cc5ccccc5CN4)[C@H](O)C3)nc12` [Example 44, (6-bromo-8-methylimidazo[1,2-a]pyridin-2-yl)((3R,3’R)-3′-hydroxy-1,4-dihydro-2H-spiro[isoquinoline-3,4′-piperidin]-1′-yl)methanone], the EC50 in assay [1] (setting [3]) came out at 42.1 nM; in assay [1] (setting [4]) it was 0.687 nM; in assay [2] it was 1.32 nM.

With `O=C(c1ccn(CC(F)(F)F)c(=O)c1)N1CC[C@]2(Cc3ccccc3CN2)[C@H](O)C1` [Example 45, 4-((3R,3′R)-3′-hydroxy-1,4-dihydro-2H-spiro[isoquinoline-3,4′-piperidine]-1′-carbonyl)-1-(2,2,2-trifluoroethyl)pyridin-2(1H)-one], the EC50 came out at 16000 nM in assay [1] (setting [3]), 70 nM in assay [1] (setting [4]) and 224 nM in assay [2].

As for `CC(C)(O)c1cc(Br)cn2cc(C(=O)N3CC[C@]4(Cc5ccccc5CN4)[C@H](O)C3)nc12` [Example 47, (6-bromo-8-(2-hydroxypropan-2-yl)imidazo[1,2-a]pyridin-2-yl)((3R,3’R)-3′-hydroxy-1,4-dihydro-2H-spiro[isoquinoline-3,4′-piperidin]-1′-yl)methanone], the half-maximal effective concentration (EC50) in assay [1] (setting [3]) was determined as 403 nM; in assay [1] (setting [4]), 0.421 nM; in assay [2] it was 9.81 nM.

Regarding `CC(C)(O)c1cc(Br)cn2cc(C(=O)N3CCC4(Cc5ccccc5CN4)C(O)C3)nc12` (stereo not drawn) [Example 48, A diastereomer of [6-bromo-8-(2-hydroxy-2-propanyl)imidazo[1,2-a]pyridin-2-yl](3′-hydroxy-1,4-dihydro-1′H,2H-spiro[isoquinoline-3,4′-piperidin]-1′-yl)methanone], the EC50 in assay [1] (setting [3]) is 2980 nM; in assay [1] (setting [4]), 4.91 nM; in assay [2], 246 nM.

Regarding `Cc1cc(Br)c2nc(C(=O)N3CC[C@]4(Cc5ccccc5CN4)[C@H](O)C3)cn2c1` [Example 49, (8-bromo-6-methylimidazo[1,2-a]pyridin-2-yl)((3R,3’R)-3′-hydroxy-1,4-dihydro-2H-spiro[isoquinoline-3,4′-piperidin]-1′-yl)methanone], the concentration giving a half-maximal response (EC50) was 347 nM in assay [1] (setting [3]), 1.15 nM in assay [1] (setting [4]) and 3.88 nM in assay [2].

As for `COc1cc(Br)cn2cc(C(=O)N3CC[C@]4(Cc5ccccc5CN4)[C@H](O)C3)nc12` [Example 50, (6-bromo-8-methoxyimidazo[1,2-a]pyridin-2-yl)((3R,3’R)-3′-hydroxy-1,4-dihydro-2H-spiro[isoquinoline-3,4′-piperidin]-1′-yl)methanone], the EC50 in assay [1] (setting [3]) came to 62.4 nM; in assay [1] (setting [4]) it was 0.38 nM; in assay [2], 1.48 nM.

For the compound `CNC(=O)c1cc(Br)cn2cc(C(=O)N3CC[C@]4(Cc5ccccc5CN4)[C@H](O)C3)nc12` [Example 51, 6-bromo-2-((3R,3’R)-3′-hydroxy-1,4-dihydro-2H-spiro[isoquinoline-3,4′-piperidine]-1′-carbonyl)-N-methylimidazo[1,2-a]pyridine-8-carboxamide], the concentration for a half-maximal effect (EC50) in assay [1] (setting [3]) was 1500 nM; in assay [1] (setting [4]), 7.02 nM; in assay [2], 13.7 nM.

Consider `O=C(c1cn2c(n1)CCC(C(F)(F)F)C2)N1CC[C@]2(Cc3ccccc3CN2)[C@H](O)C1` (stereo partly drawn) [Example 54, [(3R,3′R)-3′-hydroxy-1,4-dihydro-1′H,2H-spiro[isoquinoline-3,4′-piperidin]-1′-yl][6-(trifluoromethyl)-5,6,7,8-tetrahydroimidazo[1,2-a]pyridin-2-yl]methanone], for which the EC50 in assay [1] (setting [3]) is 2660 nM; in assay [1] (setting [4]), 8.01 nM; in assay [2] it was 169 nM.

With `O=C(c1cn2cc(Br)cc(C(F)(F)F)c2n1)N1CC[C@]2(Cc3ccccc3CN2)[C@H](O)C1` [Example 55, [6-bromo-8-(trifluoromethyl)imidazo[1,2-a]pyridin-2-yl][(3R,3′R)-3′-hydroxy-1,4-dihydro-1′H,2H-spiro[isoquinoline-3,4′-piperidin]-1′-yl]methanone], the 50% effective concentration (EC50) in assay [1] (setting [3]) is 170 nM; in assay [1] (setting [4]), 0.817 nM; in assay [2], 1.17 nM.

For `O=C(c1cnc2ncc(Cl)cn12)N1CC[C@]2(Cc3ccccc3CN2)[C@H](O)C1` [Example 56, (6-chloroimidazo[1,2-a]pyrimidin-3-yl)[(3R,3′R)-3′-hydroxy-1,4-dihydro-1′H,2H-spiro[isoquinoline-3,4′-piperidin]-1′-yl]methanone], the 50% effective concentration (EC50) in assay [1] (setting [3]) is 10000 nM; in assay [1] (setting [4]), 12.4 nM; in assay [2] it was 82.1 nM.

Regarding `O=C(c1ccn2c(Br)cnc2n1)N1CC[C@]2(Cc3ccccc3CN2)[C@H](O)C1` [Example 57, (3-bromoimidazo[1,2-a]pyrimidin-7-yl)[(3R,3′R)-3′-hydroxy-1,4-dihydro-1′H,2H-spiro[isoquinoline-3,4′-piperidin]-1′-yl]methanone], the 50% effective concentration (EC50) was determined as 55000 nM in assay [1] (setting [3]), 63.1 nM in assay [1] (setting [4]) and 2190 nM in assay [2].

`O=C(c1nn2cc(Br)cnc2c1Cl)N1CC[C@]2(Cc3ccccc3CN2)[C@H](O)C1` [Example 58, (6-bromo-3-chloropyrazolo[1,5-a]pyrimidin-2-yl)[(3R,3′R)-3′-hydroxy-1,4-dihydro-1′H,2H-spiro[isoquinoline-3,4′-piperidin]-1′-yl]methanone]: the figures for the half-maximal effective concentration (EC50) in assay [1] (setting [3]), in assay [1] (setting [4]) and in assay [2] were 313 nM, 0.715 nM and 10.1 nM, respectively.

With `CN1CCn2cc(C(=O)N3CC[C@]4(Cc5ccccc5CN4)[C@H](O)C3)nc2C1` [Example 59, [(3R,3′R)-3′-hydroxy-1,4-dihydro-1′H,2H-spiro[isoquinoline-3,4′-piperidin]-1′-yl](7-methyl-5,6,7,8-tetrahydroimidazo[1,2-a]pyrazin-2-yl)methanone], the EC50 in assay [1] (setting [4]) was determined as 20.2 nM; in assay [2] it was 6100 nM.

Turning to `Cc1c(C(=O)N2CC[C@]3(Cc4ccccc4CN3)[C@H](O)C2)nn2cc(Br)cnc12` [Example 62, (6-bromo-3-methylpyrazolo[1,5-a]pyrimidin-2-yl)[(3R,3′R)-3′-hydroxy-1,4-dihydro-1′H,2H-spiro[isoquinoline-3,4′-piperidin]-1′-yl]methanone], the EC50 in assay [1] (setting [3]) is 556 nM; in assay [1] (setting [4]) it was 0.395 nM; in assay [2] it was 31 nM.

With `Cc1nc2nc(C(=O)N3CC[C@]4(Cc5ccccc5CN4)[C@H](O)C3)cn2cc1C1CC1` [Example 63, (6-cyclopropyl-7-methylimidazo[1,2-a]pyrimidin-2-yl)[(3R,3′R)-3′-hydroxy-1,4-dihydro-1′H,2H-spiro[isoquinoline-3,4′-piperidin]-1′-yl]methanone], the EC50 turned out to be 417 nM in assay [1] (setting [3]), 0.583 nM in assay [1] (setting [4]) and 45.8 nM in assay [2].

As to `Cc1c(C2CC2)cnc2nc(C(=O)N3CC[C@]4(Cc5ccccc5CN4)[C@H](O)C3)cn12` [Example 64, (6-cyclopropyl-5-methylimidazo[1,2-a]pyrimidin-2-yl)[(3R,3′R)-3′-hydroxy-1,4-dihydro-1′H,2H-spiro[isoquinoline-3,4′-piperidin]-1′-yl]methanone], the results for the EC50 in assay [1] (setting [3]), in assay [1] (setting [4]) and in assay [2] were 9770 nM, 19.1 nM and 756 nM, respectively.

Turning to `Cc1nc(Br)cn2cc(C(=O)N3CC[C@]4(Cc5ccccc5CN4)[C@H](O)C3)nc12` [Example 65, (6-bromo-8-methylimidazo[1,2-a]pyrazin-2-yl)[(3R,3′R)-3′-hydroxy-1,4-dihydro-1′H,2H-spiro[isoquinoline-3,4′-piperidin]-1′-yl]methanone], the concentration giving a half-maximal response (EC50) stood at 1360 nM in assay [1] (setting [3]), 1.19 nM in assay [1] (setting [4]) and 99.1 nM in assay [2].

On to `Cc1cn2cc(C(=O)N3CC[C@]4(Cc5ccccc5CN4)[C@H](O)C3)nc2c(O)n1` [Example 66, 2-{[(3R,3′R)-3′-hydroxy-1,4-dihydro-1′H,2H-spiro[isoquinoline-3,4′-piperidin]-1′-y1]carbonyl}-6-methylimidazo[1,2-a]pyrazin-8(7H)-one], for which the EC50 in assay [1] (setting [3]) came out at 9330 nM; in assay [1] (setting [4]), 13.7 nM; in assay [2] it was 4410 nM.

For orientation: EC50 means the concentration at which the effect is half-maximal.
